Results: US4112228A, “7-(D-α-Hydroxy-2-arylacetamido)-3-(2-carboxyalkyl-2,3-dihydro-s-tri azolo-[4,3-b]pyridazin-3-on-6-ylthiomethyl)-3-cephem-4-carboxylic acids and derivatives” (priority 1977, dated 1978)
Where two headings read alike, the source gives them in different places.

Experiments:
Experiment in all cases: MIC by Steers' agar dilution method
E. coli = format: cell-based; conditions: Escherichia coli, read-out: MIC
St. faecalis = conditions: Enterococcus faecalis
Pr. vulgaris = conditions: Proteus vulgaris
Shig. dysenteriae = conditions: Shigella dysenteriae, MHA
Serr. marcescens = conditions: Serratia marcescens
Sal. enteritidis = conditions: Salmonella enterica
Shig. sonnei = format: cell-based; conditions: Shigella sonnei, MHA

Measured: MIC

Cn1nnnc1SCC1=C(C(=O)O)N2C(=O)[C@@H](NC(=O)[C@H](O)c3ccccc3)[C@H]2SC1 [Cefamandole, cefamandole, reference compound]
6.3 µg/mL: Pr. vulgaris; A9699, MHA, Table 1 | Pr. vulgaris; Pv-3 A9699 (β-lactamase), NA, Table 4
0.025 µg/mL: E. coli; NIHJ, MHA, Table 1
0.2 µg/mL: E. coli; Ec-49 A20107, MHA, Table 3 | Pr. vulgaris; ATCC9920, Pv-4 ATCC 9920, MHA, Table 3 | Pr. vulgaris; Pv-1 A9436, NA, Table 4 | Pr. vulgaris; strain not given (1st of 2), MHA, Example 10 | Shig. dysenteriae; Sd-1, Table 3 | Sal. enteritidis; Se-1 A9531, MHA, Table 3 | Shig. sonnei; Example 10
100 µg/mL: St. faecalis; Sf-3 S. faecalis A9536, HIA, Table 4 | St. faecalis; Sf-3 S. faecalis A9536, MHA, Table 4 | Pr. vulgaris; Pv-3 A9699 (β-lactamase), HIA, Table 4 | Serr. marcescens; A20019, MHA, Table 1 | Serr. marcescens; MHA, Example 10 | Serr. marcescens; Sm-1 A20019 (β-lactamase), MHA, Table 4 | Serr. marcescens; Sm-3 A20336, MHA, Table 4
> 100 µg/mL: St. faecalis; MHA, Example 10 | St. faecalis; Sf-3 S. faecalis A9536, NA, Table 4 | Pr. vulgaris; Pv-5 A9539, MHA, Table 3 | Pr. vulgaris; Pv-7 A21240, MHA, Table 3
1.6 µg/mL: E. coli; Ec-58 A9675, MHA, Table 3 | E. coli; strain not named (3rd of 3), MHA, Example 10 | Pr. vulgaris; Pv-2 A9526, MHA, Table 3
0.8 µg/mL: E. coli; Ec-50 A20109, MHA, Table 3 | E. coli; Ec-59 A20766, MHA, Table 3 | E. coli; Ec-62 A20895, MHA, Table 3 | E. coli; Juhl, MHA, Example 10 | Pr. vulgaris; Pv-1 A9436, MHA, Table 3 | Pr. vulgaris; Pv-6 A9716, MHA, Table 3
12.5 µg/mL: E. coli; Ec-46 A15164 (β-lactamase), HIA, Table 4 | E. coli; Ec-46 A15164 (β-lactamase), MHA, Table 4 | E. coli; Ec-46 A15164, MHA, Table 3 | E. coli; Ec-51 A20343 (β-lactamase), NA, Table 4 | E. coli; Ec-51 A20343, MHA, Table 3 | E. coli; Ec-56 A20365, MHA, Table 3 | Serr. marcescens; Sm-2 A20335, MHA, Table 3 | Serr. marcescens; Sm-3 A20336, MHA, Table 3 | Serr. marcescens; Sm-4 A20442, MHA, Table 3 | Serr. marcescens; Sm-5 A20222, MHA, Table 3 | Serr. marcescens; Sm-6 A20460, MHA, Table 3
0.1 µg/mL: E. coli; strain not named (1st of 3), MHA, Example 10 | E. coli; strain not named (2nd of 3), MHA, Example 10 | Shig. dysenteriae; Example 10 | Shig. dysenteriae; Table 1 | Sal. enteritidis; A9531, MHA, Table 1 | Shig. sonnei; Ss-1 Yale, Table 3
0.05 µg/mL: E. coli; NIHJ, MHA, Example 10 | Sal. enteritidis; MHA, Example 10 | Shig. sonnei; A9516, Table 1
25 µg/mL: E. coli; Ec-46 A15164 (β-lactamase), NA, Table 4 | E. coli; Ec-51 A20343 (β-lactamase), HIA, Table 4 | E. coli; Ec-51 A20343 (β-lactamase), MHA, Table 4 | Serr. marcescens; Sm-1 A20019, MHA, Table 3 | Serr. marcescens; Sm-11 A20459, MHA, Table 3
0.4 µg/mL: E. coli; Juhl A15119, MHA, Table 1 | Pr. vulgaris; A9436, MHA, Table 1 | Pr. vulgaris; Pv-1 A9436, HIA, Table 4 | Pr. vulgaris; Pv-1 A9436, MHA, Table 4
50 µg/mL: E. coli; Ec-47 A15170, MHA, Table 3 | St. faecalis | Pr. vulgaris; Pv-3 A9699 (β-lactamase), MHA, Table 4 | Pr. vulgaris; Pv-3 A9699, MHA, Table 3 | Pr. vulgaris; strain not named (2nd of 2), MHA, Example 10 | Serr. marcescens; Sm-1 A20019 (β-lactamase), HIA, Table 4 | Serr. marcescens; Sm-1 A20019 (β-lactamase), NA, Table 4 | Serr. marcescens; Sm-3 A20336, HIA, Table 4 | Serr. marcescens; Sm-3 A20336, NA, Table 4 | Serr. marcescens; Sm-9 A20333, MHA, Table 3 | Serr. marcescens; Sm-10 A20334, MHA, Table 3 | Serr. marcescens; Sm-12 A20461, MHA, Table 3
